In ChEMBL document CHEMBL1687837, “Roles of residues Cys69, Asn104, Phe160, Gly232, Ser237, and Asp240 in extended-spectrum beta-lactamase Toho-1” (2011):
≈ marks a conversion by molar mass, not a printed value.

Tests used:
Escherichia coli [1] = assay: Activity of Escherichia coli beta-lactamase Toho-1 […] mutant assessed as compound hydrolysis by spectrophotometry
Escherichia coli [2] = assay: Activity of Escherichia coli beta-lactamase Toho-1 N104A mutant assessed as compound hydrolysis by spectrophotometry
Escherichia coli [3] = assay: Activity of Escherichia coli beta-lactamase Toho-1 D240S mutant assessed as compound hydrolysis by spectrophotometry
Escherichia coli [4] = assay: Activity of Escherichia coli beta-lactamase Toho-1 D240A mutant assessed as compound hydrolysis by spectrophotometry
Escherichia coli [5] = assay: Activity of Escherichia coli beta-lactamase Toho-1 C69A mutant assessed as compound hydrolysis by spectrophotometry
Escherichia coli [6] = assay: Activity of Escherichia coli beta-lactamase Toho-1 F160T mutant assessed as compound hydrolysis by spectrophotometry
Escherichia coli [7] = assay: Activity of Escherichia coli beta-lactamase Toho-1 G232A mutant assessed as compound hydrolysis by spectrophotometry
Escherichia coli [8] = assay: Ratio of Kcat to Km for Escherichia coli beta-lactamase Toho-1 N104A mutant assessed as compound hydrolysis by spectrophotometry
Escherichia coli [9] = assay: Ratio of Kcat to Km for Escherichia coli beta-lactamase Toho-1 N104D mutant assessed as compound hydrolysis by spectrophotometry
Escherichia coli [10] = assay: Ratio of Kcat to Km for Escherichia coli beta-lactamase Toho-1 […] mutant assessed as compound hydrolysis by spectrophotometry
Escherichia coli [11] = assay: Ratio of Kcat to Km for Escherichia coli beta-lactamase Toho-1 D240S mutant assessed as compound hydrolysis by spectrophotometry
Escherichia coli [12] = assay: Ratio of Kcat to Km for Escherichia coli beta-lactamase Toho-1 D240A mutant assessed as compound hydrolysis by spectrophotometry
Escherichia coli [13] = assay: Ratio of Kcat to Km for Escherichia coli beta-lactamase Toho-1 C69A mutant assessed as compound hydrolysis by spectrophotometry
Escherichia coli [14] = assay: Ratio of Kcat to Km for Escherichia coli beta-lactamase Toho-1 F160T mutant assessed as compound hydrolysis by spectrophotometry
Escherichia coli [15] = assay: Ratio of Kcat to Km for Escherichia coli beta-lactamase Toho-1 G232A mutant assessed as compound hydrolysis by spectrophotometry
Escherichia coli [16] = assay: Antibacterial activity against Escherichia coli AS226 carrying pBSD-H2 after 18 hrs by broth microdilution method; assay type: functional; details: AS226, 18 h
Escherichia coli [17] = assay: Antibacterial activity against Escherichia coli AS226 carrying pBSDN104A mutant after 18 hrs by broth microdilution method; assay type: functional; details: AS226, 18 h
Escherichia coli [18] = assay: Antibacterial activity against Escherichia coli AS226 carrying pBSDN104D mutant after 18 hrs by broth microdilution method; assay type: functional; details: AS226, 18 h
Escherichia coli [19] = assay: Antibacterial activity against Escherichia coli AS226 carrying pBSDS237A mutant after 18 hrs by broth microdilution method; assay type: functional; details: AS226, 18 h
Escherichia coli [20] = assay: Antibacterial activity against Escherichia coli AS226 carrying pBSDD240S mutant after 18 hrs by broth microdilution method; assay type: functional; details: AS226, 18 h
Escherichia coli [21] = assay: Antibacterial activity against Escherichia coli AS226 carrying pBSDD240A mutant after 18 hrs by broth microdilution method; assay type: functional; details: AS226, 18 h
Escherichia coli [22] = assay: Antibacterial activity against Escherichia coli AS226 carrying pBSDC69A mutant after 18 hrs by broth microdilution method; assay type: functional; details: AS226, 18 h
Escherichia coli [23] = assay: Antibacterial activity against Escherichia coli AS226 carrying pBSDF160T mutant after 18 hrs by broth microdilution method; assay type: functional; details: AS226, 18 h
Escherichia coli [24] = assay: Antibacterial activity against Escherichia coli AS226 carrying pBSD6 mutant after 18 hrs by broth microdilution method; assay type: functional; details: AS226, 18 h
Escherichia coli [25] = assay: Antibacterial activity against Escherichia coli AS226 after 18 hrs by broth microdilution method; assay type: functional; details: AS226, 18 h
Escherichia coli [26] = assay: Activity of Escherichia coli beta-lactamase Toho-1 N104D mutant assessed as compound hydrolysis by spectrophotometry

| SMILES | Km (Escherichia coli [1]) [µM] | kcat (Escherichia coli [1]) [s⁻¹] | Km (Escherichia coli [2]) [µM] | kcat (Escherichia coli [2]) [s⁻¹] | Km (Escherichia coli [3]) [µM] | kcat (Escherichia coli [3]) [s⁻¹] | Km (Escherichia coli [4]) [µM] | kcat (Escherichia coli [4]) [s⁻¹] | Km (Escherichia coli [5]) [µM] | kcat (Escherichia coli [5]) [s⁻¹] | MIC (Escherichia coli [16]) [µg/mL] | MIC (Escherichia coli [17]) [µg/mL] | MIC (Escherichia coli [18]) [µg/mL] | MIC (Escherichia coli [19]) [µg/mL] | MIC (Escherichia coli [20]) [µg/mL] | MIC (Escherichia coli [21]) [µg/mL] | MIC (Escherichia coli [22]) [µg/mL] | MIC (Escherichia coli [23]) [µg/mL] | MIC (Escherichia coli [24]) [µg/mL] | MIC (Escherichia coli [25]) [µg/mL] | further results |
| --- | --- | --- | --- | --- | --- | --- | --- | --- | --- | --- | --- | --- | --- | --- | --- | --- | --- | --- | --- | --- | --- |
| C[C@H]1[C@H](NC(=O)/C(=N\OC(C)(C)C(=O)O)c2csc(N)n2)C(=O)N1S(=O)(=O)O [AZTREONAM] | 31 | 9.1 | 240 | 8.6 | 93 | 12 | 100 | 15 | 58 | 4.5 | 64 (≈ 147 µM) | 8 (≈ 18.4 µM) | 1 (≈ 2.3 µM) | 128 (≈ 294 µM) | 64 (≈ 147 µM) | 128 (≈ 294 µM) | 64 (≈ 147 µM) | 16 (≈ 36.7 µM) | 2 (≈ 4.59 µM) | < 0.125 | Km (Escherichia coli [6]): 69 µM; kcat (Escherichia coli [6]): 6.6 s⁻¹; Km (Escherichia coli [7]): 64 µM; kcat (Escherichia coli [7]): 6.7 s⁻¹; kcat/Km (Escherichia coli [8]): 3.5 ×10⁴ /s/M; kcat/Km (Escherichia coli [9]): 1.9 ×10⁴ /s/M; kcat/Km (Escherichia coli [10]): 2.9 ×10⁵ /s/M; kcat/Km (Escherichia coli [11]): 1.3 ×10⁵ /s/M; kcat/Km (Escherichia coli [12]): 1.5 ×10⁵ /s/M; kcat/Km (Escherichia coli [13]): 7.7 ×10⁴ /s/M; kcat/Km (Escherichia coli [14]): 9.6 ×10⁴ /s/M; kcat/Km (Escherichia coli [15]): 1.1 ×10⁵ /s/M |
| CC(=O)OCC1=C(C(=O)O)N2C(=O)[C@@H](NC(=O)Cc3cccs3)[C@H]2SC1 [CEPHALOTHIN] | 77 | 370 | 140 | 180 | 120 | 410 | 98 | 320 | 200 | 780 | 2050 (≈ 5170 µM) | 512 (≈ 1290 µM) | 2050 (≈ 5170 µM) | 2050 (≈ 5170 µM) | 2050 (≈ 5170 µM) | 2050 (≈ 5170 µM) | 2050 (≈ 5170 µM) | 2050 (≈ 5170 µM) | 128 (≈ 323 µM) | 2 (≈ 5.04 µM) | Km (Escherichia coli [26]): 70 µM; kcat (Escherichia coli [26]): 200 s⁻¹; Km (Escherichia coli [6]): 170 µM; kcat (Escherichia coli [6]): 690 s⁻¹; Km (Escherichia coli [7]): 150 µM; kcat (Escherichia coli [7]): 620 s⁻¹; kcat/Km (Escherichia coli [8]): 1.2 ×10⁶ /s/M; kcat/Km (Escherichia coli [9]): 2.8 ×10⁶ /s/M; kcat/Km (Escherichia coli [10]): 4.8 ×10⁶ /s/M; kcat/Km (Escherichia coli [11]): 3.3 ×10⁶ /s/M; kcat/Km (Escherichia coli [12]): 3.3 ×10⁶ /s/M; kcat/Km (Escherichia coli [13]): 4 ×10⁶ /s/M; kcat/Km (Escherichia coli [14]): 4.1 ×10⁶ /s/M; kcat/Km (Escherichia coli [15]): 4.1 ×10⁶ /s/M |
| C[C@@H](O)[C@H]1C(=O)N2C(C(=O)O)=C(SCCNC=N)C[C@H]12 [IMIPENEM ANHYDROUS] | – | – | – | – | – | – | – | – | – | – | < 0.125 | 0.125 (≈ 0.418 µM) | 0.125 (≈ 0.418 µM) | – | – | 0.125 (≈ 0.418 µM) | – | – | – | < 0.125 | – |
| CO[C@@]1(NC(=O)Cc2cccs2)C(=O)N2C(C(=O)O)=C(COC(N)=O)CS[C@@H]21 [CEFOXITIN] | – | – | – | – | – | – | – | – | – | – | 1 (≈ 2.34 µM) | 1 (≈ 2.34 µM) | 2 (≈ 4.68 µM) | 2 (≈ 4.68 µM) | 1 (≈ 2.34 µM) | 1 (≈ 2.34 µM) | 2 (≈ 4.68 µM) | 2 (≈ 4.68 µM) | 2 (≈ 4.68 µM) | 1 (≈ 2.34 µM) | – |
| CC(C)(O/N=C(\C(=O)N[C@@H]1C(=O)N2C(C(=O)[O-])=C(C[n+]3ccccc3)CS[C@H]12)c1csc(N)n1)C(=O)O [CEFTAZIDIME] | – | – | – | – | – | – | – | – | – | – | 0.25 (≈ 0.457 µM) | < 0.125 | < 0.125 | 0.5 (≈ 0.915 µM) | 4 (≈ 7.32 µM) | 8 (≈ 14.6 µM) | 4 (≈ 7.32 µM) | 1 (≈ 1.83 µM) | 0.25 (≈ 0.457 µM) | < 0.125 | – |
